# Measured values from patent US5559106A, “Heterocyclic compounds, their use and preparation” (Novo Nordisk A/S, priority 1993, dated 1996).
# Experiments:
# AMPA type receptors = test: 3H-AMPA Binding (Test 1), rat cerebral cortical membrane homogenate; conditions: 3H-AMPA 5 nM, rat cerebral cortical membranes, pH 7.1, 0° C., 30 min; read-out: TEST 1 IC50 (displacement of 50% of the specific binding of 3H-AMPA)
# Experimental: (§1) The pharmacological properties of the compounds of the present invention can be illustrated by determining their capability for displacing radioactively labelled 2-amino-3-hydroxy-5-methyl-4-isoxazolepropionic acid (AMPA) from the AMPA type receptors.
# The displacement activity of the compounds may be shown by determining the IC50 value which represents the concentration (μM) which causes a displacement of 50% of the specific binding of ^3 H-AMPA.
# ^3 H-AMPA Binding (Test 1)
# 500 μl of thawed rat cerebral cortical membrane homogenate in Tris-HCl (30 mM), CaCl2 (2.5 mM) and KSCN (100 mM) pH 7.1 were incubated at 0° C. for 30 min. with 25 μl ^3 H-AMPA (5 nM final concentration) and the test compound and buffer. Nonspecific binding was determined by incubation with L-glutamic acid (600 μM final concentration). The binding reaction was terminated by adding 5 ml of ice-cold buffer followed by filtration through Whatman GF/C glass fibre filters and 2×5 ml wash with ice-cold buffer. Bound radioactivity was measured by scintillation counting. IC50 was determined by Hill analysis of at least four concentrations of test compound.
# [1] = test system: quisqualic acid stimulated spreading depression in chicken retina; test: Spreading Depression (Test 2), quisqualate stimulated, chicken retina; type: cell-based; conditions: Gallus gallus, 0.25 h, quisqualate 1 μg/ml, 26° C., 15 min incubation with test compound, read-out: TEST 2 IC50 (50% maximal inhibition of quisqualic acid stimulated spreading depression)
# Experimental: as §1
# The antagonism is measured by determining the IC50 value which represents the concentration which produces a 50% maximal inhibition of quisqualic acid stimulated spreading depression in chicken retina.
# Spreading Depression (Test 2)
# Chicks (3-10 days old) were decapitated, the eyes enucleated and sectioned along the equatorial plane. […]
# The eyes were initially incubated in normal P.S.S. for 15-30 min. and then transferred to P.S.S. containing quisqualate (1 μg/ml). […] The time taken for an S.D. to start in each eye was measured.
# After a further 15 min. of incubation in normal P.S.S. the eyes were transferred to normal P.S.S. containing the test compound and incubated for 15 min. […] The time taken for an S.D. to start in each eye was measured again. The eyes were then placed back in normal P.S.S. and after 15 min. the time taken for S.D. to start was measured again, in order to assess the degree of recovery from any drug effects. […]
IC50 (AMPA type receptors) [nM],IC50 [1] [nM],SMILES
260,400,"O=c1[nH]c2cc(C(F)(F)F)ccc2n2c(CP(=O)(O)O)nnc12 [Example 20, 1-Phosphonomethyl-7-trifluoromethyl[1,2,4]triazolo[4,3-a]quinoxalin-4(5H)-one]"
480,1400,"O=c1[nH]c2c3ccccc3ccc2n2c(CP(=O)(O)O)nnc12 [Example 30, 3-Phosphonomethylbenzo[f]-1,2,4-triazolo[4,3-a]quinoxalin-12(11H)-one]"
